According to patent publication US3954764A, “Dibenzo [b,f]thiepins bearing piperazinyl substitution” (priority 1973, dated 1976):
Entries after “also recorded” stand apart in the source; their conditions may differ. Where two headings read alike, the source gives them in different places.

Tests used:
"Pole Climbing" Test = type: in vivo, rat; settings: rat, in vivo, po; rats, p.o.; higher quotient = greater selectivity of neuroleptic action; read-out: Quotient ED10 (blocking of the unconditioned reaction) / ED50 (blocking of the conditioned reaction)
Procedure: (§1) This test provides information about behavioral reactions of rats. Rats are trained to avoid, by climbing up a vertical pole in the test chamber, an electrical impulse (unconditioned impulse) released via the wire-latticed floor some seconds after an acoustic signal (conditioned impulse).
(§2) The blocking of the conditioned reaction is determined by the parameter ED50 (mg/kg p.o.); the blocking of the unconditioned reaction is determined by a parameter ED10 (mg/kg. p.o.).
(§3) The parameter ED50 (blocking of the conditioned reaction) gives a measure of the neuroleptic strength of action of the test substance. The quotient ED10 (blocking of the unconditioned reaction)/ED50 (blocking of the conditioned reaction) gives a measure of the quality of action of the test substance since, with increasing quotient, a greater selectivity of the neuroleptic action (slighter neurotoxic side-effect) is present.

rats [1] = test: "Pole Climbing" Test; type: in vivo, rat; settings: for ED50: Rattus norvegicus, po, read-out: ED50 (blocking of the conditioned reaction); for neuroleptic action in words / quality (selectivity) of the neuroleptic action in words: compared with chlorpromazine
Procedure: as §1, §2, §3

[2] = Catalepsy test (i.p., rats; number of cataleptic animals recorded every 30 minutes over 6 hours); type: in vivo, rat; settings: rat, in vivo, ip
Procedure: (§4) The following compounds were tested:
(§5) The foregoing compounds were compared to chlorpromazine, a well-known central depressant, especially well known as a neuroleptic agent.
(§6) The test animals are considered to be cataleptic when the homolateral extremities remain in the crossed position for at least 10 seconds. The number of cataleptic animals is recorded every 30 minutes over a 6-hour period. The ED50 is the dose at which 50 percent of the animals are cataleptic.

rats [3] = test: as above; type: in vivo, rat
Procedure: as §4, §5, §6

[4] = Acute toxicity in the mouse; settings: in vivo, po
mice = test: Rotating Rod Test; type: in vivo, mouse; settings: for ED50: Mus musculus, po, read-out: ED50 (dose which reduces the holding on period by 50 percent); for Rotating Rod Test activity in words: compared with chlorpromazine
Procedure: In the Rotating Rod Test, the ability of mice to achieve a coordinated motor performance is investigated. After peroral administration of the test substance, the mice are placed upon a horizontal slowly rotating rod and the time they remain on the rod is recorded. The ED50 is that dose which reduces the holding on period of the mice by 50 percent as compared to the holding on period prior to the administration of the test substance.

[5] = test system: homovanillinic acid (turnover of dopamine in the basal ganglions); test: Determination of Homovanillinic Acid; type: in vivo, rat; settings: rats; for Increase in HVA, percent: 2 hours before killing, untreated = 100 percent
Procedure: Two hours prior to being killed, rats are injected with the test substance.
Thereafter, the homovanillinic acid is extracted from the supernatant portion of a homogenized mixture of the brains of the treated rats into butyl acetate and later into an aqueous solution and is oxidized with potassium ferric cyanide to a fluorescent dimer. […] The homovanillinic acid titer in untreated rats is arbitrarily set at 100 percent.

[6] = rats, intraperitoneal, 6-hour period, read-out: ED50 (dose at which 50 percent of the animals are cataleptic)

Row | SMILES | selectivity ratio ("Pole Climbing" Test) | ED50 (rats [1]; rats, p.o.) | TD50 at 6 h [2, 6] | cataleptic activity in words (rats [3]; rat, in vivo) | LD50 at 24 h [4] | ED50 (mice) | Increase in HVA, percent ([5]; 20 mg/kg p.o.) | cataleptic activity in words (rats [3]; as compared to chlorpromazine) | ED50 (mice; mice, peroral) | Rotating Rod Test activity in words (mice; mice, peroral, maleate) | HVA test activity in words [5] | Increase in HVA, percent ([5]; 50 mg/kg p.o.) | neuroleptic action in words (rats [1]; rats) | quality (selectivity) of the neuroleptic action in words (rats [1]; rats) | TD50 at 6 h [2] | Rotating Rod Test activity in words (mice; mice, peroral) | ED50 (rats [1]) | Increase in HVA, percent ([5]; 45 mg/kg p.o.)
1 | CN(C)CCCN1c2ccccc2Sc2ccc(Cl)cc21 [Chlorpromazine, reference compound] | 2.5 | 11.8 mg/kg | 6 mg/kg | does demonstrate cataleptic effect | 200 mg/kg | 5 mg/kg | 321% |  |  |  |  |  |  |  |  |  |  | 
2 | Cc1ccc2c(c1)CC(N1CCN(CCN3CCCC3=O)CC1)c1cc(Cl)ccc1S2.O=C(O)/C=C\C(=O)O (stereo not drawn) [Product A, 1-{2-[4-(8-chloro-10,11-dihydro-2-methyl-dibenzo[b,f]thiepin-10-yl)-1-piperazinyl]-ethyl}-2-pyrrolidinone maleate] |  |  | > 100 mg/kg |  | 3750 mg/kg |  |  | no cataleptic effect | 7.3 mg/kg | strong activity; also recorded: approximates that of chlorpromazine | nearly as potent as that of chlorpromazine | 295% |  |  |  |  |  | 
3 | O=C(O)/C=C\C(=O)O.O=C1OCCN1CCN1CCN(C2Cc3cc(Cl)ccc3Sc3cc(F)ccc32)CC1 (stereo not drawn) [Product B, 3-{2-[4-(2-chloro-7-fluoro-10,11-dihydrodibenzo[b,f]thiepin-10-yl)-1-piperazinyl]-ethyl}-2-oxazolidinone maleate] |  |  | > 100 mg/kg |  | 900 mg/kg |  |  | no cataleptic effect |  |  | nearly as potent as that of chlorpromazine | 270% |  |  |  |  |  | 
4 | Cc1ccc2c(c1)CC(N1CCN(CCN3CCOC3=O)CC1)c1cc(F)ccc1S2 (stereo not drawn) [Product C, 3-{2-[4-(8-fluoro-10,11-dihydro-2-methyl-dibenzo[b,f]thiepin-10-yl)-1-piperazinyl]-ethyl}-2-oxazolidinone] | 23 | 14 mg/kg |  |  | 1880 mg/kg |  |  | very weak cataleptic activity | 2.1 mg/kg |  |  | 235% | lies somewhat below that of chlorpromazine | substantially exceeds that of chlorpromazine | 75 mg/kg | strong activity; also recorded: superior to that of chlorpromazine |  | 
5 | O=C(O)/C=C\C(=O)O.O=C1OCCN1CCN1CCN(C2Cc3cc(Cl)ccc3Sc3ccc(F)cc32)CC1 (stereo not drawn) [Product D, 3-{2-[4-(2-chloro-8-fluoro-10,11-dihydrodibenzo[b,f]thiepin-10-yl)-1-piperazinyl]-ethyl}-2-oxazolidinone maleate] | 7.6 |  | 45 mg/kg |  | 450 mg/kg |  |  | considerably lower cataleptic activity | 1 mg/kg | strong activity; also recorded: superior to that of chlorpromazine | nearly as potent as that of chlorpromazine |  | lies somewhat below that of chlorpromazine | substantially exceeds that of chlorpromazine |  |  | 17 mg/kg | 300%
6 | CSc1ccc2c(c1)C(N1CCN(CCN3CCOC3=O)CC1)Cc1cc(C)ccc1S2.O=C(O)/C=C\C(=O)O (stereo not drawn) [Product E, 3-{2-[4-(10,11-dihydro-2-methyl-8-methylthiodibenzo[b,f]thiepin-10-yl)-1-piperazinyl]-ethyl}-2-oxazolidinone maleate] | 12 |  | 45 mg/kg |  | 3750 mg/kg |  |  | considerably lower cataleptic activity |  |  |  | 255% | lies somewhat below that of chlorpromazine | substantially exceeds that of chlorpromazine |  |  | 25 mg/kg | 
